{
  "source": "patent US20190269705A1",
  "about": "“METHODS AND MATERIALS FOR TREATING GRAFT VERSUS HOST DISEASE” (Regents of the University of Minnesota, priority 2017, published 2019)",
  "key": {"Th17 cells": {"tested_on": "Th17 cells", "assay": "CD4 T cells in Th17 skewing conditions, flow cytometry"}, "Th1 cells": {"tested_on": "Th1 cells", "assay": "CD4 T cells in Th1 skewing conditions, flow cytometry"}, "cGVHD mice": {"tested_on": "cGVHD mice", "assay": "In vivo chronic graft versus host disease (cGVHD) treatment", "design": "species or system mouse", "settings": "treatment Day 28-56 after transplant; for pulmonary function: DON 1.6 mg/kg EOD IP, metformin 150 mg/kg daily IP", "protocol": "Induction of Graft vs Host Disease (cGVHD) was performed as described elsewhere (see, e.g., Panoskaltsis-Mortari et al., 2007 Am J Respir Crit Care Med. 176(7):713-723). Briefly, mice were lethally irradiated the day before bone marrow (BM) transplant. Mice were dosed with cyclophosphamide (Cytoxan, Bristol Myers Squibb, Seattle Wash.) at 120 mg/kg/day on days −3 and −2. Recipient irradiated mice were transplanted via caudal vein with 10×10^6 T-cell depleted allogeneic marrow with 73.5×10^3 purified splenic T cells from WT or GLS KO mice, or control (no CD4+ T cells). Mice were assessed for lung elasticity, resistance, and compliance at Day 28 by whole body plethysmography using the Flexivent system (Scireq, Montreal, PQ, Canada). Histological assessment of GVHD was assessed as described elsewhere (see, e.g., Blazar et al., 1998 Blood 92(10):3949-3959).\n6-Diazo-5-Oxo-L-Norleucine (DON) was administered to mice conditioned with cyclophosphamide (Cytoxan, Bristol Myers Squibb, Seattle Wash.) and total body irradiation.\nTo determine if inhibiting GLS can improve cGVHD, DON (with or without metformin) was administered to mice that were transplanted with WT T cell depleted bone marrow with WT purified splenic T cells beginning on day 28 after transplant."}, "stimulated T cells": {"tested_on": "stimulated T cells", "assay": "Oxygen Consumption Rate (Seahorse) of stimulated CD4 T cells", "format": "cell-based, mouse", "settings": "CD4 cells stimulated on CD3/CD28; 1 μM CB839, 5 μM UK5099 injected separately or in combination", "protocol": "Experiments were carried out on Agilent Seahorse XF96 bioanalyzer (Agilent). Briefly, wild type CD4+ cells were isolated as previous and activated for 3 days on CD3/CD28 as previously described, or skewed to Th1 and Th17 subsets as described above. T cells were spun onto XF96 Cell-Tak (BD Bioscience, Cat #: 354240) coated plates and rested in Seahorse XF RPMI 1640 media supplemented with glutamine, sodium pyruvate, and glucose. For immediate metabolic response, CB839 and UK5099 were injected separately or in combination, and OCR and ECAR measured.\nExperiments were carried out on Agilent Seahorse XF96 bioanalyzer (Agilent). Briefly, wild type CD4+ cells were isolated as previous and activated for 3 days on αCD3/CD28 coated plates as previously described, or skewed to Th1 and Th17 subsets as described above. T cells were isolated and spun onto XF96 Cell-Tak (BD Bioscience, Cat #: 354240) coated plates and rested in Seahorse XF RPMI 1640 media supplemented with glutamine, sodium pyruvate, and glucose. For immediate metabolic response, 1 μM CB839 and 5 μM UK5099 (Cat #: PZ0160-5MG) were injected separately or in combination, and OCR and ECAR measured. For activation response, 1 uM CB839 was injected into IL-7 maintained naïve CD4+ T cells in seahorse medium and allowed to incubate for 20 minutes, followed by soluble αCD3/CD28 injection."}, "[1]": {"settings": "Th17, CB839 + cell-permeable α-KG analog"}, "[2]": {"settings": "Th1, CB839 + 1.5 mM cell-permeable α-KG analog"}},
  "note": "“Also recorded” adds a separate entry of the source.",
  "data": [
    {"molecule": "COC(=O)CCC(=O)C(=O)OC", "note": "[DMaKG, dimethyl-2-oxoglutarate]", "values": [
      {"measurement": "IL17 production of CB839-treated Th17 cells", "setting": "Th17 cells; [1]", "result": "unchanged or further decreased"},
      {"measurement": "RORγt of CB839-treated Th17 cells", "setting": "Th17 cells; [1]", "result": "unchanged or further decreased"},
      {"measurement": "IFNγ production of CB839-treated Th1 cells", "setting": "Th1 cells; [2]", "result": "rectified"},
      {"measurement": "Tbet expression of CB839-treated Th1 cells", "setting": "Th1 cells; [2]", "result": "rectified"},
      {"measurement": "IFNγ production of CB839-treated Th1 cells", "setting": "Th1 cells; Th1, CB839 + 1.5 mM cell-permeable α-KG analog, listed as DM2OG", "result": "reduced IFNγ production of CB839-treated to control levels"},
      {"measurement": "cytokine production in Th1 cells, by itself", "setting": "Th1 cells; Th1, α-KG analog alone", "result": "did not reduce cytokine production"}
    ]},
    {"molecule": "[N-]=[N+]=CC(=O)CC[C@H](N)C(=O)O", "note": "[DON, 6-Diazo-5-Oxo-L-Norleucine]", "values": [
      {"measurement": "GC B cell frequency", "setting": "cGVHD mice", "result": "decreased GC B cell frequency; also recorded: decrease GC B cell frequencies; also recorded: reduced GC B cells"},
      {"measurement": "TFH frequency", "setting": "cGVHD mice", "result": "increased TFH frequency"},
      {"measurement": "TFR frequencies", "setting": "cGVHD mice", "result": "increased TFR frequencies"},
      {"measurement": "TFR:TFH ratios", "setting": "cGVHD mice", "result": "improved TFR:TFH ratios"},
      {"measurement": "percentage of lymphocytes", "setting": "cGVHD mice", "result": "reduced the percentage of lymphocytes; also recorded: reduces lymphocytes"},
      {"measurement": "pulmonary function", "setting": "cGVHD mice", "result": "improve pulmonary functions"}
    ]},
    {"molecule": "CCOC(=O)CCNc1cc(N2CCc3ccccc3CC2)nc(-c2ccccn2)n1", "note": "[GSKJ4]", "values": [
      {"measurement": "cytokine production", "setting": "Th17 cells; Th17, day five, JMJD3 inhibitor", "result": "increased cytokine production in Th1 but not Th17 cells"},
      {"measurement": "cytokine production", "setting": "Th1 cells; Th1, day five, JMJD3 inhibitor", "result": "increased cytokine production"}
    ]},
    {"molecule": "CC(=O)N[C@@H](CS)C(=O)O", "note": "[NAC, N-acetyl cysteine]", "values": [
      {"measurement": "H3K27 trimethylation", "setting": "Th17 cells; GLS-deficient (CB839) Th17 cells + NAC", "result": "restored"},
      {"measurement": "expression of IL17", "setting": "Th17 cells; Th17, NAC alone", "result": "modestly reduced"},
      {"measurement": "expression of RORγt", "setting": "Th17 cells; Th17, NAC alone", "result": "modestly reduced"},
      {"measurement": "expression of RORγt", "setting": "Th17 cells; Th17, NAC combined with CB839", "result": "partially restored to control levels"},
      {"measurement": "production of IL17", "setting": "Th17 cells; Th17, NAC combined with CB839", "result": "partially restored to control levels"},
      {"measurement": "IFNγ secretion", "setting": "Th1 cells; Th1, NAC alone", "result": "decreasing IFNγ secretion"},
      {"measurement": "production of IFNγ", "setting": "Th1 cells; Th1, NAC combined with CB839", "result": "did not, however, increase"},
      {"measurement": "H3K27 trimethylation", "setting": "Th1 cells; Th1 cells + NAC", "result": "no effect"}
    ]},
    {"molecule": "N#C/C(=C\\c1cn(-c2ccccc2)c2ccccc12)C(=O)O", "note": "[UK5099]", "values": [
      {"measurement": "oxygen consumption (T cell respiration)", "setting": "stimulated T cells", "result": "neither UK5099 nor CB839 were sufficient on their own to reduce T cell respiration; also recorded: neither UK5099 nor CB839 were sufficient to reduce T cell respiration alone"}
    ]},
    {"molecule": "CN(C)C(=N)N=C(N)N", "note": "[metformin]", "values": [
      {"measurement": "pulmonary function", "setting": "cGVHD mice", "result": "improved pulmonary function"}
    ]},
    {"molecule": "CO[C@H]1C[C@@H]2CC[C@@H](C)[C@@](O)(O2)C(=O)C(=O)N2CCCC[C@H]2C(=O)O[C@H]([C@H](C)C[C@@H]2CC[C@@H](O)[C@H](OC)C2)CC(=O)[C@H](C)/C=C(\\C)[C@@H](O)[C@@H](OC)C(=O)[C@H](C)C[C@H](C)/C=C/C=C/C=C/1C", "note": "[rapamycin]", "values": [
      {"measurement": "effect on control Th1 cells", "setting": "Th1 cells; rapamycin added on day 3 after activation", "result": "no effect"}
    ]}
  ]
}
